In ChEMBL document CHEMBL1909046, “DrugMatrix in vitro pharmacology data”:

Key:
[1] = target: C-C chemokine receptor type 2 (Homo sapiens, UniProt P41597); assay type: cell membranes, CHO-K1, Membrane; conditions: cho-k1; also: in other assays of this panel Not Active means under 50% inhibition at 10 µM
[2] = DRUGMATRIX: Glutamate, Kainate radioligand binding (ligand: [3H] Kainic acid); assay type: cell membranes, Rattus norvegicus, Wistar, Brain, Membrane; conditions: Not Active = under 50% inhibition at 10 µM
[3] = DRUGMATRIX: Phorbol Ester radioligand binding (ligand: [3H] PDBu); assay type: cell membranes, Mus musculus, ICR, Brain, Membrane; conditions: Not Active = under 50% inhibition at 10 µM
[4] = DRUGMATRIX: GABAA, Flunitrazepam, Central radioligand binding (ligand: [3H] Flunitrazepam); assay type: cell membranes, Rattus norvegicus, Wistar, Brain, Membrane; conditions: Not Active = under 50% inhibition at 10 µM
[5] = DRUGMATRIX: Atrial Natriuretic Factor (ANF) radioligand binding (ligand: [125I] ANF (rat)); assay type: cell membranes, Cavia porcellus, Dunkin-Hartley, Adrenal gland, Membrane; conditions: Not Active = under 50% inhibition at 10 µM
Progesterone receptor = target: T1, Progesterone receptor (Bos taurus, UniProt Q690N0); assay: DRUGMATRIX: Progesterone radioligand binding (ligand: [3H] R-5020); assay type: tissue-based, Uterus; conditions: Not Active = under 50% inhibition at 10 µM
T1 sequence (Q690N0 whole entry): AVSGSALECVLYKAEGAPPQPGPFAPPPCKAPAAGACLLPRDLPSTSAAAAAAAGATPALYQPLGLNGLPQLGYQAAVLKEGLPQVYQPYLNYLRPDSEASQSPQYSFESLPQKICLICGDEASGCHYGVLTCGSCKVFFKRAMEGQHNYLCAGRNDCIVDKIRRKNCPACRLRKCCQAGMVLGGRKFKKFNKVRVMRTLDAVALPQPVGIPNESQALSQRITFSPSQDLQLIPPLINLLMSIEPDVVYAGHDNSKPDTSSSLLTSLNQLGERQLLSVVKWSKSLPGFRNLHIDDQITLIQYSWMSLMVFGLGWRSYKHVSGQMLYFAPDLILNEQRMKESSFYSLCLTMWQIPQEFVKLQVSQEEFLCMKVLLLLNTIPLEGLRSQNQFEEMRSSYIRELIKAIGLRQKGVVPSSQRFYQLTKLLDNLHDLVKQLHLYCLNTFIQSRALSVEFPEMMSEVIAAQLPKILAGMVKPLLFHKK

[6] = DRUGMATRIX: Calcium Channel Type L, Benzothiazepine radioligand binding (ligand: [3H] Diltiazem); assay type: cell membranes, Rattus norvegicus, Wistar, Brain, Membrane; conditions: Not Active = under 50% inhibition at 10 µM
[7] = DRUGMATRIX: beta-Lactamase enzyme inhibition (substrate: Nitrocefin); design: species or system Bacillus cereus; conditions: Not Active = under 50% inhibition at 10 µM
[8] = target: T2, Angiotensin-converting enzyme (Oryctolagus cuniculus, UniProt P12822); assay: biochemical; assay type: tissue-based, Lung;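 also: enzymatic inhibition of angiotensin-converting enzyme measured with FAPGG as the substrate; in other assays of this panel Not Active means under 50% inhibition at 10 µM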
T2 sequence (P12822 whole entry): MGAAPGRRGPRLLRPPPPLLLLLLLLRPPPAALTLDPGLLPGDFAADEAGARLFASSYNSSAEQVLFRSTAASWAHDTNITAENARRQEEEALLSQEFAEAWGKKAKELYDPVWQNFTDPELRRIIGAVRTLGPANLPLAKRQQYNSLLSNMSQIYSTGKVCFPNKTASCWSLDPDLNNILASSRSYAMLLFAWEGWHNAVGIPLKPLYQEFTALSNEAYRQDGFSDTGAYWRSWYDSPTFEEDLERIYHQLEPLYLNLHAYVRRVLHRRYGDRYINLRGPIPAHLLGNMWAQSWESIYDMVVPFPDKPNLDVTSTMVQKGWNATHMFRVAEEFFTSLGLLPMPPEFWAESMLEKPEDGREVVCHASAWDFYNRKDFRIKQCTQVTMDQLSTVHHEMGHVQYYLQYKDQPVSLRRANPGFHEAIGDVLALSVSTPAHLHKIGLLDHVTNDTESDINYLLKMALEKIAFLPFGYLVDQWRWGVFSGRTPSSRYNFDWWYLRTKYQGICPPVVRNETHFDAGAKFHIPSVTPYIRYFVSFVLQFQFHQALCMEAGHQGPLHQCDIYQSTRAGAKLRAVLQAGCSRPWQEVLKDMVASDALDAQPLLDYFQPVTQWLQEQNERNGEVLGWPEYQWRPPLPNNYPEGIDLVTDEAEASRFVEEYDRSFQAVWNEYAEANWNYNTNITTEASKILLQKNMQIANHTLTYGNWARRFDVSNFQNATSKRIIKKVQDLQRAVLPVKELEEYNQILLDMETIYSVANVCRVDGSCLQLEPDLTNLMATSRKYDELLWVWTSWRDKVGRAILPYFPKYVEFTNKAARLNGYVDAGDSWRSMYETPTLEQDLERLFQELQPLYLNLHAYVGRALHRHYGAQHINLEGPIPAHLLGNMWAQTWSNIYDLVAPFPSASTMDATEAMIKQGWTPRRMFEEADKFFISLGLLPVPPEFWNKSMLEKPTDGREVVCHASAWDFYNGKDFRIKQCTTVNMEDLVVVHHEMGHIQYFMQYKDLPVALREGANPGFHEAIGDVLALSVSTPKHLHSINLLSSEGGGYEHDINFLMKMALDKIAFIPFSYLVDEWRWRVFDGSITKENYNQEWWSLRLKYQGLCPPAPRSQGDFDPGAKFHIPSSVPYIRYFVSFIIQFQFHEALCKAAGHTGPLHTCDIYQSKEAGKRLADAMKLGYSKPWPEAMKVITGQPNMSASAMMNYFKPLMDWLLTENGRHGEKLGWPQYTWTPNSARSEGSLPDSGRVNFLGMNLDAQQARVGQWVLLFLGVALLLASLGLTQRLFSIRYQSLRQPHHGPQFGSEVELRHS

Thromboxane-A synthase = target: T3, Thromboxane-A synthase (Homo sapiens, UniProt P24557); assay: biochemical; assay type: tissue-based, Platelet; conditions: platelet;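 also: enzyme inhibition assay with PGH2 supplied as substrate; in other assays of this panel Not Active means under 50% inhibition at 10 µM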
T3 sequence (P24557 whole entry): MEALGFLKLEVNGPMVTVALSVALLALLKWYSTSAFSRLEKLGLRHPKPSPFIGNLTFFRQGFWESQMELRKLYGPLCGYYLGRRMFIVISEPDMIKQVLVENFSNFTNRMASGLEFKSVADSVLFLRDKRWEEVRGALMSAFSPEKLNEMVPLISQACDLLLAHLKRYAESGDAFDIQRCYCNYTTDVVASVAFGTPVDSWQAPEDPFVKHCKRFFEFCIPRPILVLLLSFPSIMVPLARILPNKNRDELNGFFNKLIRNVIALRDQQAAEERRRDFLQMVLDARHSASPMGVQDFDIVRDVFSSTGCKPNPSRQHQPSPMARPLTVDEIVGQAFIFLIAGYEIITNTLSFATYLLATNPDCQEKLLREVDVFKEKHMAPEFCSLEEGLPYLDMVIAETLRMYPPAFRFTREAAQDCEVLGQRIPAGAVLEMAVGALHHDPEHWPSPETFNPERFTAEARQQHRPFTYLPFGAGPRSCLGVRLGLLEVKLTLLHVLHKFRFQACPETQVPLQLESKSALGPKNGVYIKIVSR

Chain of C-C chemokine receptor type 2 (P41597 whole entry): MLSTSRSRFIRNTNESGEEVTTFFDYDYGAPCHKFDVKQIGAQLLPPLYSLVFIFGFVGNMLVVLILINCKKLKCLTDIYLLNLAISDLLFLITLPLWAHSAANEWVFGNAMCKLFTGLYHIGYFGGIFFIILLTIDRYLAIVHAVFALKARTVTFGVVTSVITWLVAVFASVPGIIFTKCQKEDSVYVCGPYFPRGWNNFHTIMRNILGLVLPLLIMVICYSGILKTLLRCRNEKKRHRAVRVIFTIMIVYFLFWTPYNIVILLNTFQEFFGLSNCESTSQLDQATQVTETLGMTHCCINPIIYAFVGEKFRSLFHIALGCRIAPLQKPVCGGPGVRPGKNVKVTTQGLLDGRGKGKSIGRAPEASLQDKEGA

Nc1ccc(S(N)(=O)=O)cc1 [SULFANILAMIDE]
Not Active: IC50 [1] | IC50 [2] | Ki [2] | IC50 [3] | Ki [3] | IC50 [4] | Ki [4] | IC50 [5] | Ki [5] | IC50 (Progesterone receptor) | IC50 [6] | Ki [6] | IC50 [7] | Ki [7] | IC50 [8] | IC50 (Thromboxane-A synthase)

Nc1ccc(S(=O)(=O)Nc2ccnn2-c2ccccc2)cc1 [SULFAPHENAZOLE]
Not Active: IC50 [1] | IC50 [2] | Ki [2] | IC50 [3] | Ki [3] | IC50 [4] | Ki [4] | IC50 [5] | Ki [5] | IC50 (Progesterone receptor) | IC50 [6] | Ki [6] | IC50 [7] | Ki [7] | IC50 [8] | IC50 (Thromboxane-A synthase)

C=CC[C@@H]1/C=C(\C)C[C@H](C)C[C@H](OC)[C@H]2O[C@@](O)(C(=O)C(=O)N3CCCC[C@H]3C(=O)O[C@H](/C(C)=C/[C@@H]3CC[C@@H](O)[C@H](OC)C3)[C@H](C)[C@@H](O)CC1=O)[C@H](C)C[C@@H]2OC [TACROLIMUS ANHYDROUS]
Not Active: IC50 [1] | IC50 [2] | Ki [2] | IC50 [3] | Ki [3] | IC50 [4] | Ki [4] | IC50 [5] | Ki [5] | IC50 (Progesterone receptor) | IC50 [6] | Ki [6] | IC50 [7] | Ki [7] | IC50 [8] | IC50 (Thromboxane-A synthase)

CC1CN(c2cc3c(cc2F)c(=O)c(C(=O)O)cn3-c2ccc(F)cc2F)CCN1 (configuration not stated) [TEMAFLOXACIN]
Not Active: IC50 [1] | IC50 [2] | Ki [2] | IC50 [3] | Ki [3] | IC50 [4] | Ki [4] | IC50 [5] | Ki [5] | IC50 (Progesterone receptor) | IC50 [6] | Ki [6] | IC50 [7] | Ki [7] | IC50 [8] | IC50 (Thromboxane-A synthase)

CC(C)(C)NCC(O)c1cc(O)cc(O)c1 (configuration not stated) [TERBUTALINE]
Not Active: IC50 [1] | IC50 [2] | Ki [2] | IC50 [3] | Ki [3] | IC50 [4] | Ki [4] | IC50 [5] | Ki [5] | IC50 (Progesterone receptor) | IC50 [6] | Ki [6] | IC50 [7] | Ki [7] | IC50 [8] | IC50 (Thromboxane-A synthase)

CN(C)[C@@H]1C(O)=C(C(N)=O)C(=O)[C@@]2(O)C(O)=C3C(=O)c4c(O)cccc4[C@@](C)(O)[C@H]3C[C@@H]12 [TETRACYCLINE]
Not Active: IC50 [1] | IC50 [2] | Ki [2] | IC50 [3] | Ki [3] | IC50 [4] | Ki [4] | IC50 [5] | Ki [5] | IC50 (Progesterone receptor) | IC50 [6] | Ki [6] | IC50 [7] | Ki [7] | IC50 [8] | IC50 (Thromboxane-A synthase)

c1ccc2[nH]c(-c3cscn3)nc2c1 [THIABENDAZOLE]
Not Active: IC50 [1] | IC50 [2] | Ki [2] | IC50 [3] | Ki [3] | IC50 [4] | Ki [4] | IC50 [5] | Ki [5] | IC50 (Progesterone receptor) | IC50 [6] | Ki [6] | IC50 [7] | Ki [7] | IC50 [8] | IC50 (Thromboxane-A synthase)
